Here are results for 37 compounds from the supplement of paper PMC9103864.

The subject of test [1] is BMSC (primary human bone marrow mesenchymal stromal cells). The test can be described thus: drug sensitivity score (DSS); higher = more sensitive.
The test system is the same in test [2]. Description: absolute EC50 for viability; higher = less sensitive.

As for `O=C(CCCCCCC(=O)Nc1ccc([C@H]2O[C@@H](CSc3nc(-c4ccccc4)c(-c4ccccc4)o3)C[C@@H](c3ccc(CO)cc3)O2)cc1)NO` [Tubacin], the drug sensitivity score in test [1] was 0. Also, in test [2], the “absolute EC50 for viability” value was more than 10 µM.

As for `Cc1c(-c2ccc(N3CCc4cccc(C(=O)Nc5nc6ccccc6s5)c4C3)nc2C(=O)O)cnn1CC12CC3CC(CC(C3)C1)C2`, the drug sensitivity score in test [1] worked out at 0. Also, the “absolute EC50 for viability” value in test [2] is more than 1 µM.

In test [1], `CON(C)C(=O)N1N=C(c2cc(F)ccc2F)S[C@@]1(CCCN)c1ccccc1` [Filanesib] returned a drug sensitivity score of 0. The “absolute EC50 for viability” value in test [2] is more than 1 µM.

On to `c1ccc2n[se]nc2c1` [BCI], for which, in test [1], the drug sensitivity score was 14.9. For the same compound, in test [2], the “absolute EC50 for viability” value came to 2.55 µM.

`CC(=O)c1c(C)c2cnc(Nc3ccc(N4CCNCC4)cn3)nc2n(C2CCCC2)c1=O` [Palbociclib] gave a drug sensitivity score in test [1] of 2.3. Also, the “absolute EC50 for viability” value in test [2] was more than 10 µM.

As to `COc1cc2nccc(Oc3ccc(NC(=O)NC4CC4)c(Cl)c3)c2cc1C(N)=O` [Lenvatinib], in test [1], the drug sensitivity score is 5.2. The “absolute EC50 for viability” value in test [2] was more than 2.5 µM.

`Cc1cc(Nc2cc(N3CCN(C)CC3)nc(Sc3ccc(NC(=O)C4CC4)cc3)n2)n[nH]1` [Tozasertib] showed a drug sensitivity score in test [1] of 4.9. For the same compound, the “absolute EC50 for viability” value in test [2] was 4.45 µM.

`O=C(O)CC[C@H]1CC[C@@](c2cc(F)ccc2F)(S(=O)(=O)c2ccc(Cl)cc2)CC1` [MK-0752] registered a drug sensitivity score in test [1] of 0. For the same compound, the “absolute EC50 for viability” value in test [2] is more than 1 µM.

`CC(C)N(CCCNC(=O)Nc1ccc(C(C)(C)C)cc1)C[C@H]1O[C@@H](n2cc(Br)c3c(N)ncnc32)[C@H](O)[C@@H]1O` [SGC0946] gave a drug sensitivity score in test [1] of 2.1. Further, in test [2], the “absolute EC50 for viability” value was more than 10 µM.

For the compound `COc1ccc(-c2ccc3ncc4c(c3c2)n(-c2ccc(N3CCNCC3)c(C(F)(F)F)c2)c(=O)n4C)cn1` [NVP-BGT226], in test [1], the drug sensitivity score came out at 17.5. The “absolute EC50 for viability” value in test [2] stood at 0.0263 µM.

`Nc1nc2[nH]cc(CCc3ccc(C(=O)N[C@@H](CCC(=O)O)C(=O)O)cc3)c2c(=O)[nH]1` [Pemetrexed] came in with a drug sensitivity score in test [1] of 0.7. The “absolute EC50 for viability” value in test [2] is more than 10 µM.

The compound `COc1cc2/c(=N/c3ccc(Br)cc3F)nc[nH]c2cc1OCC1CCN(C)CC1` [Vandetanib] yielded a drug sensitivity score in test [1] of 2.5. In addition, in test [2], the “absolute EC50 for viability” value was more than 1 µM.

With `Cc1sc2c(c1C)C(c1ccc(Cl)cc1)=N[C@@H](CC(=O)Nc1ccc(O)cc1)c1nnc(C)n1-2` [Birabresib], the drug sensitivity score in test [1] was determined as 4.9. For the same compound, the “absolute EC50 for viability” value in test [2] was more than 10 µM.

In test [1], `Cc1cc2c(C(C)C)c(O)c(O)c(C=O)c2c(O)c1-c1c(C)cc2c(C(C)C)c(O)c(O)c(C=O)c2c1O` [AT 101] registered a drug sensitivity score of 6.1. For the same compound, the “absolute EC50 for viability” value in test [2] was determined as 28.1 µM.

In turn, `O=C(O)CCCCC(CCSCc1ccccc1)SCc1ccccc1` (centres undefined) [CPI-613] yielded a drug sensitivity score in test [1] of 0. The “absolute EC50 for viability” value in test [2] was more than 10 µM.

Consider `CNC(=O)c1nn(C)c2c1C(C)(C)Cc1cnc(Nc3ccc(N4CCN(C)CC4)cc3)nc1-2` [Milciclib], for which, in test [1], the drug sensitivity score is 10.1. Further, in test [2], the “absolute EC50 for viability” value was more than 10 µM.

The compound `N.N.[Cl][Pt][Cl]` [Cisplatin] displayed a drug sensitivity score in test [1] of 3.6. Besides, in test [2], the “absolute EC50 for viability” value turned out to be 48.5 µM.

In test [1], `CCCN(CCC)C(=O)C1=Cc2ccc(-c3ccc(C(=O)N4CCCC4)cc3)cc2N=C(N)C1` [Motolimod] yielded a drug sensitivity score of 0. Moreover, the “absolute EC50 for viability” value in test [2] came out at 9.93 µM.

Compound `CC(C)c1cc(-c2n[nH]c(=O)n2-c2ccc3c(ccn3C)c2)c(O)cc1O` [Ganetespib] came in with a drug sensitivity score in test [1] of 10.3. The “absolute EC50 for viability” value in test [2] is 0.0862 µM.

Consider `O=C(CCCCCCNC(=O)c1cnc(N(c2ccccc2)c2ccccc2)nc1)NO` [Rocilinostat], for which the drug sensitivity score in test [1] came out at 1.8. For the same compound, the “absolute EC50 for viability” value in test [2] is more than 10 µM.

On to `CCS(=O)(=O)Nc1ccc(Oc2ccc(F)cc2F)c(-c2cn(C)c(=O)c3[nH]ccc23)c1` [Mivebresib], for which the drug sensitivity score in test [1] was found to be 13. Further, the “absolute EC50 for viability” value in test [2] turned out to be 2.71 µM.

Regarding `O=C(c1cc(Cc2n[nH]c(=O)c3ccccc23)ccc1F)N1CCN(C(=O)C2CC2)CC1` [Olaparib], the drug sensitivity score in test [1] came to 2.1. Besides, the “absolute EC50 for viability” value in test [2] was more than 10 µM.

The compound `Cn1cnc2c(F)c(Nc3ccc(Br)cc3F)c(C(=O)NOCCO)cc21` [Binimetinib] returned a drug sensitivity score in test [1] of 1.9. For the same compound, the “absolute EC50 for viability” value in test [2] is more than 1 µM.

As for `C[C@H]1C[C@@H]2[C@H]([C@@H](O)C[C@@]3(C)[C@H]2CC[C@]3(O)C(=O)CO)[C@@]2(C)C=CC(=O)C=C12` [Methylprednisolone], the drug sensitivity score in test [1] amounted to 0. Further, the “absolute EC50 for viability” value in test [2] is more than 10 µM.

Compound `O=C(O)CNC(=O)c1c(O)c2ccccc2n(Cc2ccccc2)c1=O` [IOX-2] gave a drug sensitivity score in test [1] of 1.9. Moreover, in test [2], the “absolute EC50 for viability” value was more than 50 µM.

As to `Cc1ccc(Nc2nccc(N(C)c3ccc4c(C)n(C)nc4c3)n2)cc1S(N)(=O)=O` [Pazopanib], the drug sensitivity score in test [1] was 2.1. For the same compound, the “absolute EC50 for viability” value in test [2] was more than 10 µM.

In turn, `Nc1ccccc1NC(=O)c1ccc(CNc2nccc(-c3cccnc3)n2)cc1` [Mocetinostat] registered a drug sensitivity score in test [1] of 4.7. For the same compound, the “absolute EC50 for viability” value in test [2] is more than 10 µM.

The compound `C/C=C1\NC(=O)[C@H]2CSSCC/C=C/[C@H](CC(=O)N[C@H](C(C)C)C(=O)N2)OC(=O)[C@H](C(C)C)NC1=O` [Romidepsin] displayed a drug sensitivity score in test [1] of 23.2. The “absolute EC50 for viability” value in test [2] worked out at 0.0097 µM.

In the case of `COc1cccc2c1C(=O)c1c(O)c3c(c(O)c1C2=O)C[C@@](O)(C(=O)CO)C[C@@H]3O[C@H]1C[C@H](N)[C@H](O)[C@H](C)O1` [Doxorubicin], the drug sensitivity score in test [1] stood at 6.8. In addition, the “absolute EC50 for viability” value in test [2] was found to be 0.219 µM.

Turning to `Cc1nc(-c2cn3c(n2)-c2ccc(-c4cnn(C(C)(C)C(N)=O)c4)cc2OCC3)n(C(C)C)n1` [Taselisib], the drug sensitivity score in test [1] stood at 8.9. For the same compound, in test [2], the “absolute EC50 for viability” value is more than 1 µM.

Regarding `CN1CCC(COc2cnc(-c3cccc(Cn4nc(-c5cccc(C#N)c5)ccc4=O)c3)nc2)CC1` [Tepotinib], the drug sensitivity score in test [1] is 0.3. The “absolute EC50 for viability” value in test [2] is more than 1 µM.

In test [1], `COc1cc(N2CCC(N3CCN(C)CC3)CC2)ccc1Nc1ncc(Cl)c(Nc2ccccc2P(C)(C)=O)n1` [Brigatinib] showed a drug sensitivity score of 2.8. For the same compound, the “absolute EC50 for viability” value in test [2] stood at 0.945 µM.

In test [1], `Nc1ncn([C@@H]2O[C@H](CO)[C@@H](O)[C@H]2O)c(=O)n1` [Azacitidine] yielded a drug sensitivity score of 2.3. Besides, in test [2], the “absolute EC50 for viability” value was more than 10 µM.

The compound `CC(C)C[C@@H](C(=O)N[C@H](C(=O)OC1CCCC1)c1ccccc1)[C@H](O)C(=O)NO` [Tosedostat] came in with a drug sensitivity score in test [1] of 0. The “absolute EC50 for viability” value in test [2] was more than 10 µM.

`C=CC(=O)N1CCC[C@@H](n2nc(-c3ccc(Oc4ccccc4)cc3)c3c(N)ncnc32)C1` [Ibrutinib]: the drug sensitivity score in test [1] worked out at 0. Moreover, the “absolute EC50 for viability” value in test [2] was more than 1 µM.

Take `Nc1ccn([C@@H]2O[C@H](CO)[C@@H](O)[C@@H]2O)c(=O)n1` [Cytarabine]: in test [1], the drug sensitivity score was 1.2. In test [2], the “absolute EC50 for viability” value was more than 10 µM.

In test [1], `N#Cc1ccc(C(c2ccc(C#N)cc2)n2cncn2)cc1` [Letrozole] showed a drug sensitivity score of 0. Besides, the “absolute EC50 for viability” value in test [2] is more than 10 µM.
